# In US6402037B1, “Two-photon upconverting dyes and applications” (The Research Foundation of State University of New York, priority 1995, dated 2002):
# Experiments:
# [1] = Two-photon pumped cavity lasing of APSS solution filled hollow fiber (800 nm pump)
# Excerpt: As a comparison, the absorption spectrum of 1 mm-path length pure solvent (DMSO) is also provided. There is a strong absorption band around 400 nm due to APSS dye, and the solution is transparent in the 570˜1100 nm spectral range. However, the two-photon energy of ˜800 nm IR radiation falls into the strong absorption band. Therefore, an effective TPA process is expected by ˜800 nm excitation. […] The same effect is expected with increased path length of the solution sample with a given concentration.
# The input 800 nm pump IR laser beam was provided by a pulsed dye laser pumped with a Q-switched and frequency-doubled Nd: YAG laser source. The beam size, pulse duration, angular divergence, and repetition rate of the input pump laser radiation were ˜3 mm, ˜5 ns, ˜1 mrad, and 1-10 Hz, respectively. The pump beam was focused by a 4×-microscope objective into the input end of a 15-cm long hollow quartz fiber filled with APSS, prepared as described in Example 16, in DMSO (do=0.012 M). […] Under the excitation of the input 800 nm pump beam, a strong TPA induced green fluorescence emission was seen from the hollow fiber. […]
# The spectral intensity distribution of two-photon pumped cavity lasing from the above system is shown in FIG. 16 (dashed curve) at a pump energy level of Eo=290 μJ. For comparison, the one photon (at 400 nm) induced fluorescence spectrum of the same dye solution with the same concentration is also shown in FIG. 16 (solid curve). The bandwidth of cavity lasing was much narrower than the bandwidth of corresponding one-photon induced fluorescence emission without using any intracavity dispersion element. […] Therefore, the blue-side and central range of the fluorescence band would be expected to be more difficult to lase.
# The measured single-pulse waveform was recorded by using a fast photodiode detector in conjunction with a 350 MHz oscilloscope (Tektronix 2467 with C1001 video camera). […] At a pump level of ˜150 μJ, the measured one-pass two-photon absorption in the 15 cm-long dye solution filled hollow fiber sample was only about ˜25%. […]
# [2] = Energy transfer measurement (fluorescence of ASPS and TPPS in D2O)
# Protocol: An experiment based on the fluorescence emission of porphyrin and ASPS was conducted to show energy transfer from the dye to the porphyrin. D2O solutions of the ASPS and TPPS were mixed in different concentrations in a quartz cuvette and placed in the sample compartment of a spectrofluorophotometer. […] The beam energy used in this experiment was approximately 50 mJ in a beam having a 4 mm diameter. […] The porphyrin without the ASPS was also irradiated with the IR laser light to determine any possible contributions from the porphyrin due to two-photon excitation. […] ASPS and TPPS solutions were mixed together and a series of spectra were collected to determine dependence of fluorescence emission spectrum on the concentration of the different molecular species.
# [3] = Decomposition temperature (Td) by DSC thermogram; type: physicochemical; settings: DSC under nitrogen
# Protocol: Decomposition temperature (“Td”) of each dye was measured by differential scanning calorimetry (“DSC”) thermogram using a Shimadzu DSC-50GPC under nitrogen. Elemental: analysis were performed by Atlantic Microlab, Inc., P.O. Box 2288, Norcross, Ga. 30019. Proton NMR spectra, TV/visible absorption spectra, and UV/visible emission spectra were recorded using a Varian Gemini-300 300 MHz spectrometer, a Shimazdu UV-3101 PC spectrophotometer, and a Shimazdu RF5000U spectrofluorophotometer, respectively: TV/visible absorption spectra of dyes prepared in these Examples in DMF, are provided in FIG. 3.
compound,measurement,setting,value
CN(CCO)c1ccc(C=Cc2ccc(S(=O)(=O)CCCCCCO)cc2)cc1 [APSS],central wavelength of one-photon fluorescence band,"[1]; DMSO 0.012 M, 400 nm excitation",~520 nm
same,strong linear absorption band,"[1]; DMSO solution, 1 mm path",around 400 nm
same,transparent spectral range,"[1]; DMSO solution, 1 mm path",570˜1100 nm
"O=S(=O)(O)c1ccc(-c2c3nc(c(-c4ccc(S(=O)(=O)O)cc4)c4ccc([nH]4)c(-c4ccc(S(=O)(=O)O)cc4)c4nc(c(-c5ccc(S(=O)(=O)O)cc5)c5ccc2[nH]5)C=C4)C=C3)cc1 [TPPS, meso tetra(p-sulfonaphenyl)porphyrin]",emission peak in mixture with ASPS,[2]; 1060 nm excitation,653 nm
same,emission peak,[2]; excited at 610 nm,650 nm
trans-4-[p-(-ethyl-N-hydroxyethylamino)styryl]-N-butansulfonpyridinum [dye4],two-photon induced fluorescence emission peak,[2]; 1060 nm excitation,610 nm
same,Decomposition temperature (Td),[3],241 °C
